{"source": "paper PMC6311893", "about": "“Computational prediction of plasma protein binding of cyclic peptides from small molecule experimental data using sparse modeling techniques” (BMC Bioinformatics, 2018)", "origin": "cited, not measured here", "test_system": "plasma protein", "settings": "cited from earlier work", "key": {"[1]": {"settings": "fraction bound to plasma protein, small molecule dataset, sheet 1-SM, ref Ingle et al."}, "[2]": {"settings": "fraction bound to plasma protein, small molecule dataset, sheet 1-SM, Set Dtr, ref Ingle et al."}, "[3]": {"settings": "fraction bound to plasma protein, small molecule dataset, sheet 1-SM (Set Dte = test, Dtr = training), ref Ingle et al."}}, "note": "Where two headings read alike, the source gives them in different places.", "data": [{"compound": "COc1ccc2c(c1)N(C[C@H](C)CN(C)C)c1ccccc1S2", "note": "[methotrimeprazine]", "values": [{"measurement": "PPB (fb)", "setting": "[1]", "result": 0.98}]}, {"compound": "CC1(C)S[C@@H]2[C@H](NC(=O)[C@H](NC(=O)N3CCN(S(C)(=O)=O)C3=O)c3ccccc3)C(=O)N2[C@H]1C(=O)O", "note": "[Mezlocillin]", "values": [{"measurement": "PPB (fb)", "setting": "[2]", "result": 0.31}]}, {"compound": "N=C(N)NC(=O)Cc1c(Cl)cccc1Cl", "note": "[Guanfacine]", "values": [{"measurement": "PPB (fb)", "setting": "[2]", "result": 0.72}]}, {"compound": "O=C(NCCN1CCOCC1)c1ccc(Cl)cc1", "note": "[Moclobemide]", "values": [{"measurement": "PPB (fb)", "setting": "[2]", "result": 0.36}]}, {"compound": "mepacrine", "values": [{"measurement": "PPB (fb)", "setting": "plasma", "result": 0.9}]}, {"compound": "Pyridostigmine", "values": [{"measurement": "PPB (fb)", "setting": "plasma", "result": 0}]}, {"compound": "C/C=C/C1=C(C(=O)O)N2C(=O)C(NC(=O)C(N)c3ccc(O)cc3)C2SC1", "note": "(stereo not shown) [Cefprozil]", "values": [{"measurement": "PPB (fb)", "setting": "[2]", "result": 0.38}]}, {"compound": "CN[C@@H]1[C@@H](O)[C@@H](O[C@@H]2[C@@H](O)[C@H](O[C@H]3O[C@H](CN)[C@@H](O)[C@H](O)[C@H]3O)[C@@H](N)C[C@H]2NC(=O)[C@@H](O)CN)OC[C@]1(C)O", "note": "[Isepamicin]", "values": [{"measurement": "PPB (fb)", "setting": "[2]", "result": 0.05}]}, {"compound": "O=C(O)CN1C(=O)[C@@H](N[C@@H](CCc2ccccc2)C(=O)O)CCc2ccccc21", "note": "[Benazeprilat]", "values": [{"measurement": "PPB (fb)", "setting": "[3]", "result": 0.95}]}, {"compound": "COC(C(=O)NC1C(=O)N2C1SC(C)(C)C2C(=O)O)c1cccc([N+](=O)[O-])c1", "note": "(stereo not shown) [penicillin46]", "values": [{"measurement": "PPB (fb)", "setting": "[1]", "result": 0.6}]}, {"compound": "CCn1cc(C(=O)O)c(=O)c2ccc(C)nc21", "note": "[nalidixic acid]", "values": [{"measurement": "PPB (fb)", "setting": "[1]", "result": 0.94}]}, {"compound": "N[C@@H](Cc1cc(I)c(Oc2ccc(O)c(I)c2)c(I)c1)C(=O)O", "note": "[liothyronine]", "values": [{"measurement": "PPB (fb)", "setting": "[1]", "result": 0.98}]}, {"compound": "C[C@H]1C[C@H]2[C@@H]3CCC4=CC(=O)C=C[C@]4(C)[C@@]3(F)[C@@H](O)C[C@]2(C)[C@@]1(O)C(=O)CO", "note": "[Betamethasone]", "values": [{"measurement": "PPB (fb)", "setting": "[2]", "result": 0.66}]}, {"compound": "CN1C(=O)OC(C)(C)C1=O", "note": "[trimethadione]", "values": [{"measurement": "PPB (fb)", "setting": "[2]", "result": 0}]}, {"compound": "CN1C[C@H](C(=O)N[C@]2(C)O[C@@]3(O)[C@@H]4CCCN4C(=O)[C@H](Cc4ccccc4)N3C2=O)C[C@@H]2c3cccc4[nH]cc(c34)C[C@H]21", "note": "[dihydroergotamine]", "values": [{"measurement": "PPB (fb)", "setting": "[3]", "result": 0.93}]}, {"compound": "O=C(O)C(=O)O", "note": "[oxalic acid]", "values": [{"measurement": "PPB (fb)", "setting": "[1]", "result": 0}]}, {"compound": "CCCCCc1cc(O)c2c(c1)OC(C)(C)C1CCC(C)=CC21", "note": "(stereo not shown) [Tetrahydrocannabinol__ D9-]", "values": [{"measurement": "PPB (fb)", "setting": "plasma", "result": 0.96}]}, {"compound": "NCCCCCC(=O)O", "note": "[Aminohexanoic acid]", "values": [{"measurement": "PPB (fb)", "setting": "[2]", "result": 0.08}]}, {"compound": "NC[C@H]1O[C@H](O[C@H]2[C@H](O)[C@@H](O[C@H]3O[C@H](CO)[C@@H](O)[C@H](N)[C@H]3O)[C@H](N)C[C@@H]2N)[C@H](N)C[C@@H]1O", "note": "[Tobramycin]", "values": [{"measurement": "PPB (fb)", "setting": "[3]", "result": 0.05}]}, {"compound": "Cc1cc(C(=O)NCCc2ccc(S(=O)(=O)NC(=O)NN3CCCCCC3)cc2)no1", "note": "[glisoxepide]", "values": [{"measurement": "PPB (fb)", "setting": "[1]", "result": 0.93}]}, {"compound": "ethyl-biscoumacetate", "values": [{"measurement": "PPB (fb)", "setting": "plasma", "result": 0.9}]}, {"compound": "CCCCOCC(=O)NC1C(=O)N2C1SC(C)(C)C2C(=O)O", "note": "(stereo not shown) [penicillin7]", "values": [{"measurement": "PPB (fb)", "setting": "[1]", "result": 0.59}]}, {"compound": "NS(=O)(=O)c1ccc(S(=O)(=O)Nc2cccc3c(Cl)c[nH]c23)cc1", "note": "[indisulam]", "values": [{"measurement": "PPB (fb)", "setting": "[1]", "result": 0.98}]}, {"compound": "Felodipine", "values": [{"measurement": "PPB (fb)", "setting": "plasma", "result": 1}]}, {"compound": "CC(=O)N[C@H]1[C@H]([C@H](O)[C@H](O)CO)OC(C(=O)O)=C[C@@H]1N=C(N)N", "note": "[Zanamivir]", "values": [{"measurement": "PPB (fb)", "setting": "[1]", "result": 0.09}]}, {"compound": "CC(=O)Nc1ccc(/C=N/NC(N)=S)cc1", "note": "[amithiozone]", "values": [{"measurement": "PPB (fb)", "setting": "[3]", "result": 0.95}]}, {"compound": "Cc1ccc(O)c([C@H](CCN(C(C)C)C(C)C)c2ccccc2)c1", "note": "[Tolterodine]", "values": [{"measurement": "PPB (fb)", "setting": "[1]", "result": 0.96}]}, {"compound": "O=C(O)C1N=C(c2ccccc2)c2cc(Cl)ccc2NC1=O", "note": "(stereo not shown) [clorazepic acid]", "values": [{"measurement": "PPB (fb)", "setting": "plasma", "result": 0.91}]}, {"compound": "CCCC(C)C1(CC)C(=O)NC(=O)NC1=O", "note": "(stereo not shown) [Pentobarbital]", "values": [{"measurement": "PPB (fb)", "setting": "plasma", "result": 0.56}]}, {"compound": "C[C@@H]1CC(=O)NN=C1c1ccc(NN=C(C#N)C#N)cc1", "note": "[Levosimendan]", "values": [{"measurement": "PPB (fb)", "setting": "[2]", "result": 0.98}]}, {"compound": "CCC(CC)(CC)C(=O)NC1C(=O)N2C1SC(C)(C)C2C(=O)O", "note": "(stereo not shown) [penicillin20]", "values": [{"measurement": "PPB (fb)", "setting": "[1]", "result": 0.94}]}, {"compound": "CC(=O)[C@H]1CC[C@H]2[C@@H]3C=CC4=CC(=O)CC[C@@]4(C)[C@@H]3CC[C@]12C", "note": "[dydrogesterone]", "values": [{"measurement": "PPB (fb)", "setting": "plasma", "result": 0.97}]}, {"compound": "CCc1cccc2c3c([nH]c12)C(CC)(CC(=O)O)OCC3", "note": "(stereo not shown) [etodolac]", "values": [{"measurement": "PPB (fb)", "setting": "[1]", "result": 0.99}]}, {"compound": "C[C@@H]1O[C@@H](O[C@H]2C[C@@H](O)[C@]3(CO)[C@H]4[C@H](O)C[C@]5(C)[C@@H](C6=CC(=O)OC6)CC[C@]5(O)[C@@H]4CC[C@]3(O)C2)[C@H](O)[C@H](O)[C@H]1O", "note": "[ouabain]", "values": [{"measurement": "PPB (fb)", "setting": "plasma", "result": 0}]}, {"compound": "norgestimate", "values": [{"measurement": "PPB (fb)", "setting": "plasma", "result": 0.99}]}, {"compound": "O=C(O)CCCC[C@@H]1SC[C@@H]2NC(=O)N[C@@H]21", "note": "[biotin]", "values": [{"measurement": "PPB (fb)", "setting": "[3]", "result": 0.2}]}, {"compound": "[H]/N=C(/N)NS(=O)(=O)c1ccc(N)cc1", "note": "[sulfaguanidine]", "values": [{"measurement": "PPB (fb)", "setting": "[1]", "result": 0.08}]}, {"compound": "CCN(CC)CCNC(=O)c1ccc(NS(C)(=O)=O)cc1", "note": "[Sematilide]", "values": [{"measurement": "PPB (fb)", "setting": "[1]", "result": 0.04}]}, {"compound": "Cc1cccc(Nc2ccncc2S(=O)(=O)NC(=O)NC(C)C)c1", "note": "[Torasemide]", "values": [{"measurement": "PPB (fb)", "setting": "[1]", "result": 0.99}]}, {"compound": "Cc1cc(C)nc(NS(=O)(=O)c2ccc(N)cc2)n1", "note": "[sulfadimidine]", "values": [{"measurement": "PPB (fb)", "setting": "[3]", "result": 0.85}]}, {"compound": "CN1CCN=C(c2ccccc2)c2cc(Cl)ccc21", "note": "[medazepam]", "values": [{"measurement": "PPB (fb)", "setting": "plasma", "result": 0.99}]}, {"compound": "CC(C)=CCN1CCC2(C)c3cc(O)ccc3CC1C2C", "note": "(stereo not shown) [Pentazocine]", "values": [{"measurement": "PPB (fb)", "setting": "plasma", "result": 0.61}]}, {"compound": "CC(CN1c2ccccc2Sc2ccccc21)N(C)C", "note": "(stereo not shown) [Promethazine]", "values": [{"measurement": "PPB (fb)", "setting": "[2]", "result": 0.88}]}, {"compound": "O=C(O)CCNC(=O)c1ccccc1", "note": "[Betamipron]", "values": [{"measurement": "PPB (fb)", "setting": "[2]", "result": 0.83}]}, {"compound": "O=C1Cc2cc(CCN3CCN(c4nsc5ccccc45)CC3)c(Cl)cc2N1", "note": "[Ziprasidone]", "values": [{"measurement": "PPB (fb)", "setting": "[1]", "result": 0.99}]}, {"compound": "COc1ncnc(NS(=O)(=O)c2ccc(N)cc2)c1OC", "note": "[sulfadoxine]", "values": [{"measurement": "PPB (fb)", "setting": "[1]", "result": 0.94}]}, {"compound": "CN(C)CCCOc1nn(Cc2ccccc2)c2ccccc12", "note": "[benzydamine]", "values": [{"measurement": "PPB (fb)", "setting": "[3]", "result": 0.1}]}, {"compound": "O=C1c2c(O)ccc(O)c2C(=O)c2c(NCCNCCO)ccc(NCCNCCO)c21", "note": "[Mitoxantrone]", "values": [{"measurement": "PPB (fb)", "setting": "[3]", "result": 0.8}]}, {"compound": "NC(Cc1cc(I)c(Oc2cc(I)c(O)c(I)c2)c(I)c1)C(=O)O", "note": "(stereo not shown) [thyroxine]", "values": [{"measurement": "PPB (fb)", "setting": "[3]", "result": 0.99}]}, {"compound": "CCC(OC)C(=O)NC1C(=O)N2C1SC(C)(C)C2C(=O)O", "note": "(stereo not shown) [penicillin9]", "values": [{"measurement": "PPB (fb)", "setting": "[1]", "result": 0.2}]}, {"compound": "COC(=O)[C@@H]1CC2=CC(=O)CC[C@]2(C)[C@@]23O[C@@H]2C[C@@]2(C)[C@@H](CC[C@@]24CCC(=O)O4)[C@H]13", "note": "[eplerenone]", "values": [{"measurement": "PPB (fb)", "setting": "[1]", "result": 0.46}]}, {"compound": "COc1ccc2c(c1)C(=O)N(CCc1ccc(S(=O)(=O)NC(=O)NC3CCCCC3)cc1)C(=O)C2(C)C", "note": "[gliquidone]", "values": [{"measurement": "PPB (fb)", "setting": "[1]", "result": 0.99}]}, {"compound": "CCOc1nc2cccc(C(=O)OC(C)OC(=O)OC3CCCCC3)c2n1Cc1ccc(-c2ccccc2-c2nnn[nH]2)cc1", "note": "(stereo not shown) [Candesartan cilexetil]", "values": [{"measurement": "PPB (fb)", "setting": "[3]", "result": 0.99}]}, {"compound": "O=C(O)CCNC(=O)c1ccc(/N=N/c2ccc(O)c(C(=O)O)c2)cc1", "note": "[balsalazide]", "values": [{"measurement": "PPB (fb)", "setting": "[3]", "result": 0.99}]}, {"compound": "NC(=O)OC[C@@H]1[C@H](NC(=O)/C(=N\\OCC(=O)O)c2csc(N)n2)C(=O)N1S(=O)(=O)O", "note": "[Carumonam]", "values": [{"measurement": "PPB (fb)", "setting": "[2]", "result": 0.28}]}]}
